Where two headings read alike, the source gives them in different places.
Tests used:
T47D cells = experiment: Clonogenic survival assay, T47D; type: cell-based, human; conditions: IC50, 2 x IC50, 4 x IC50 for 24 h
Protocol: (§1) Cells were pre-cultured and treated with the indicated concentrations of MMV652103 for 24 h, washed, collected and re-plated, in drug-free medium, at 1000-2000 cells per well in 35 mm dishes, in triplicate. After 10-21 days the surviving cells were fixed with 3:1 methanol: acetic acid and stained with 0.5 % crystal violet (Sigma-Aldrich, USA) in 100 % methanol. Quantification of colonies was performed using ImageJ 1.5J8 software (USA) (Schneider et al., 2012[73]). Number of colonies was determined for each drug concentration and expressed as a percentage of the vehicle treated control.

[1] = tested on: MCF12A (normal breast epithelial cell line); experiment: MTT cytotoxicity assay, MCF12A; type: cell-based; conditions: Homo sapiens, MCF-12A, 48 h, Fig 2C summary, MTT 48 h; read-out: IC50 ± SEM MCF12A
Protocol: (§2) Human estrogen-receptor positive (ER+) breast adenocarcinoma cell lines, MCF7 and T47D, were maintained in Roswell Park Memorial Institute-1640 medium (Sigma Aldrich, Missouri, USA) and the human epidermal growth factor receptor 2 positive (HER2+) BT474, and triple negative (TNBC) MDA-MB-231 and MDA-MB-468 cells were maintained in Dulbecco's Modified Eagle's Medium (DMEM) (Sigma Aldrich, Missouri, USA). […]
(§3) Cells (3.5×10^3-6×10^3 / well) were seeded in 96-well plates and treated at a 60-70 % confluence with a range of concentrations (0-10 μM) of test compounds or vehicle for 48 h. Cell viability was measured using the 3-(4,5-dimethylthiazol-2-yl)-2,5-diphenyl-trazolium bromide (MTT) assay (11465007001; Sigma Aldrich) according to the manufacturer's instructions. Mean cell viability was calculated as a percentage of the mean vehicle control. A minimum of three independent experiments in quadruplicate were performed from which the IC50 was determined from sigmoidal plots using GraphPad Prism version 6.0 (GraphPad Software, California, USA). The selectivity index (SI) was determined by dividing the IC50 of a non-malignant cell line by the IC50 of a cancer cell line. […]

[2] = MTT cytotoxicity assay, MCF12A; type: cell-based; conditions: human, MCF12A non-malignant breast epithelial cells, MTT, read-out: Cytotoxicity assays (MTT) IC50 MCF12A
Protocol: as §2, §3

MCF7 cells [3] = experiment: Clonogenic survival assay, MCF7; type: cell-based, human; conditions: IC50, 2 x IC50, 4 x IC50 for 24 h
Protocol: as §1

[4] = tested on: FG0 human skin fibroblasts; experiment: MTT cytotoxicity assay, FG0; type: cell-based; conditions: Skin fibroblast
Protocol: as §2
Cells (3.5×10^3-6×10^3 / well) were seeded in 96-well plates and treated at a 60-70 % confluence with a range of concentrations (0-10 μM) of test compounds or vehicle for 48 h. Cell viability was measured using the 3-(4,5-dimethylthiazol-2-yl)-2,5-diphenyl-trazolium bromide (MTT) assay (11465007001; Sigma Aldrich) according to the manufacturer's instructions. Mean cell viability was calculated as a percentage of the mean vehicle control. A minimum of three independent experiments in quadruplicate were performed from which the IC50 was determined from sigmoidal plots using GraphPad Prism version 6.0 (GraphPad Software, California, USA). The selectivity index (SI) was determined by dividing the IC50 of a non-malignant cell line by the IC50 of a cancer cell line.

MCF7 cells [5] = experiment: ROS-Glo H2O2 assay; type: cell-based, human; conditions: MCF7, 24 h, ½ IC50 and IC50
Protocol: To determine whether MMV652103 induced oxidative stress in breast cancer cells, the levels of H2O2 were measured using the ROS-Glo™ H2O2 assay kit (G8820, Promega, Wisconsin, USA), according to the manufacturer's instructions. Briefly, cells (2500-4500 cells per well) were seeded in opaque 96 well plates. Cells were treated for 24 h with either vehicle or MMV652103 in a volume of 80 μl per well. After 18 h of incubation, 20 μl H2O2 Substrate Solution was added to each well. After 24 h of incubation 100 μl ROS-Glo™ Detection Solution (prepared by mixing 10 ml Luciferin Detection Reagent, 100 μl D-Cysteine and 100 μl Signal Enhancer Solution) was added to each well and incubated at RT for 20 min. After incubation, the luminescence was read using the GloMax® Explorer Multimode plate reader (Promega, Wisconsin, USA).

MCF7 cells [6] = experiment: Cell cycle analysis by flow cytometry; type: cell-based, human; conditions: IC50, 24 and 48 h
Protocol: Log-phase MCF7 cells were exposed to MMV652103 for 24 and 48 h and both adherent and floating cells were collected, processed as previously described and analyzed using a Becton Dickinson FACSCalibur flow cytometer (Becton Dickinson, New Jersey, USA) with a 488 nm coherent laser (Bleloch et al., 2019[8]). The data were acquired using CellQuest Pro version 5.2.1. software (Becton Dickinson) and the analyses were done using ModFit version 2.0. software (Verity Software House Inc, Maine, USA).

chick embryos = experiment: Chick embryo CAM model: toxicity to the embryo; type: in vivo; conditions: 4.4 μM and 22 μM
Text: At stage E9, the chorioallantoic membrane (CAM) was dropped by drilling a small hole through the eggshell into the air sac and a 1 cm^2 window was cut in the eggshell above the CAM. Cultured MCF7 cells were detached with trypsin, washed with complete medium and suspended in PBS. […] At E18 the upper portion of the CAM was removed, transferred to PBS and the tumors cut away from normal CAM tissue and weighed. A one-way ANOVA analysis with post-tests was done. In parallel, a 1 cm^2 portion of the lower CAM was collected to evaluate the number of metastatic cells. The relative amount of metastasis was calculated as follows: Tumor cells were grafted onto the upper chorioallantoic membrane (CAM) and during metastasis the cells invade the epithelium and basement membrane of the upper CAM and move through connective tissue into the vasculature into the lower CAM. The cells in the lower CAM are then harvested and genomic DNA is extracted and analyzed by qPCR with specific primers for Alu sequences which are only found in higher primates i.e. it allows for the distinction between human tumor cells and the host chick cells. Statistical analysis was directly performed on data from the Bio-Rad CFX Manager 3.1 software.

For CS(=O)(=O)c1ccc(-c2cnc3ccc(-c4cccc(S(C)(=O)=O)c4)nn23)cc1 [MMV652103], the “number of T47D cell colonies” value (T47D cells) was “dose-dependent reduction”, the IC50 [1] was 6.6 ± 1.07 µM and the IC50 at 48 h [2] was 6.64 µM. The “number of MCF7 cell colonies” value (MCF7 cells [3]) was “dose-dependent reduction”, the IC50 ([4]; Fig 2C summary, MTT 48 h, read-out: IC50 ± SEM FG0) was over 10 µM and the IC50 ([4]; MTT, 48 h, exact IC50 not reached, predicted, read-out: IC50 FG0) was over 10 µM. For the same molecule, the “levels of H2O2” value (MCF7 cells [5]) was “significant increase”, the “effect on MCF7 cell cycle progression” value (MCF7 cells [6]) was “induced sub-G1 peaks and arrested cells in G1” and the “death ratio of chick embryos” value (chick embryos) was “did not result in an abnormal death ratio”. The “macroscopic abnormalities of chick embryos” value (chick embryos; results not shown) was “nor did it lead to any macroscopic abnormalities”.

— paper PMC9149975, “The diaryl-imidazopyridazine anti-plasmodial compound, MMV652103, exhibits anti-breast cancer activity” (EXCLI Journal, 2022)
